Measurements as given in patent US20090246292A1, “ANTIMICROBIAL FORMULATIONS COMPRISING A QUINONE AND A COPPER SALT” (priority 2006, published 2009).

What was measured:
[1] = tested on: P. acnes PRP-004; assay: Disc diffusion assay (DDA), also supplemented; format: cell-based, Propionibacterium acnes; conditions: 200 μg per disc
Method: (§1) The propionibacteria were cultured and maintained on Wilkins-Chalgren Anaerobe Medium (agar and broth) at pH 6.0; all cultures were incubated anaerobically at 37° C. for 72 hours.
(§2) A sterile paper disc was impregnated with a sample of the test compound in a suitable solvent and 30 minutes allowed for the solvents to evaporate (where possible). The disc was then placed on an agar plate onto which the test micro-organism had been inoculated. The plate was then incubated under the conditions described above, following which it was examined visually for signs of bacterial growth. […] The diameter of this zone of “inhibition” was measured using a ProtoCOL™ automated zone sizer (Synbiosis, Cambridge, UK).
(§3) For assays using Propionibacterium spp. strains the supplements used in the examples below were lipid (either Tween™ 80 or triolein, both at 1% v/v) and sodium chloride (100 mM).

[2] = tested on: P. acnes NCTC 737; assay: Synergy disc diffusion assay (SDDA), also supplemented
Method: as §1
(e) Synergy Disc Diffusion Assay (SDDA)
This is a variation on the DDA method, in which two compounds are tested together for their combined antimicrobial activity.
Two test compounds A and B were placed on a single paper disc and the above described DDA procedure repeated.
(f) Supplemented Disc Diffusion Assays
as §3

[3] = tested on: P. granulosum PRP-019; assay: Disc diffusion assay (DDA), also supplemented; format: cell-based; conditions: 200 μg per disc
Method: as §1, §2, §3

## O.O.O.O.O.O=S(=O)([O-])[O-].[Cu+2] [Copper (II) sulphate pentahydrate]
[1]
  DDA + salt: 52.60 mm
[1]; 1% (v/v) triolein
  DDA + lipid: 45.61 mm
[1]; single replicate
  DDA: 51.08 mm
[1]; Table 12 series
  DDA: 44.85 mm
[2]
  SDDA area increase: 108.63%
  SDDA increase: 22.11 mm
  SDDA with TBHQ: 71.86 mm
  SL SDDA area increase: 64.85%
  SL SDDA increase: 14.18 mm
  SL SDDA with TBHQ: 64.14 mm
[3]
  DDA + salt: 25.84 mm
[3]; 1% (v/v) triolein
  DDA + lipid: 24.02 mm
[3]; single replicate
  DDA: 22.80 mm
[3]; Table 12 series
  DDA: 24.15 mm
